Source: ChEMBL document CHEMBL5154942, “Discovery of Clinical Candidate NTQ1062 as a Potent and Bioavailable Akt Inhibitor for the Treatment of Human Tumors” (J Med Chem, 2022)
Activity calls are given as the source filed them. The calls are words filed in the database; no cut-off is given here.

How the values were obtained:
Cytochrome P450 1A2 = target: T1, Cytochrome P450 1A2 (Homo sapiens, UniProt P05177); experiment: Inhibition of CYP1A2 in human liver microsomes at 0.01 to 30 uM […] in presence of NADPH by UPLC-MS/MS analysis; assay type: ADME, Microsome
T1 sequence (P05177 whole entry): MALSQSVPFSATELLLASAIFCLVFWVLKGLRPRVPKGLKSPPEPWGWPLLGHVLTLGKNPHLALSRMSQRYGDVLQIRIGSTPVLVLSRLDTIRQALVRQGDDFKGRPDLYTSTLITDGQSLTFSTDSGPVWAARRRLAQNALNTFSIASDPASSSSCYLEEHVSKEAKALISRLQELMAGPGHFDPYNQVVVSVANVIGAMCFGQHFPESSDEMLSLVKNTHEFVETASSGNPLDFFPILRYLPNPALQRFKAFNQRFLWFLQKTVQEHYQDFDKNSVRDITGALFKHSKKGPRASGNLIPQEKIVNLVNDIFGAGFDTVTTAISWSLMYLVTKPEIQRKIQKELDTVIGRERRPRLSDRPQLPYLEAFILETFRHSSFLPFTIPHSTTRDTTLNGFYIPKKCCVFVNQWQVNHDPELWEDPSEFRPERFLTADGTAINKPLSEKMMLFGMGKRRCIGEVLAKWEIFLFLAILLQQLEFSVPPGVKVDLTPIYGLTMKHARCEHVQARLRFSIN

[1] = Oral bioavailability in overnight fasted ICR mouse at 10 mg/kg measured upto 24 hrs by UPLC-MS/MS analysis; assay type: ADME, organism-based; details: in vivo
LNCaP [2] = experiment: Induction of apoptosis in human LNCaP cells assessed as apoptotic cells incubated for 72 hrs by annexin V/PI double staining based flow cytometry method; assay type: functional, cell-based; details: dose 0.62-2.5 µM, DDE = dose-dependent effect
[3] = target: Ribosomal protein S6 kinase alpha-4 (Homo sapiens) (UniProt O75676); experiment: Inhibition of MSK2 (unknown origin) at 1 uM in presence of ATP at Km concentration by mobility shift assay relative to control
Sequence of Ribosomal protein S6 kinase alpha-4 (Homo sapiens) (O75676 whole entry, looked up): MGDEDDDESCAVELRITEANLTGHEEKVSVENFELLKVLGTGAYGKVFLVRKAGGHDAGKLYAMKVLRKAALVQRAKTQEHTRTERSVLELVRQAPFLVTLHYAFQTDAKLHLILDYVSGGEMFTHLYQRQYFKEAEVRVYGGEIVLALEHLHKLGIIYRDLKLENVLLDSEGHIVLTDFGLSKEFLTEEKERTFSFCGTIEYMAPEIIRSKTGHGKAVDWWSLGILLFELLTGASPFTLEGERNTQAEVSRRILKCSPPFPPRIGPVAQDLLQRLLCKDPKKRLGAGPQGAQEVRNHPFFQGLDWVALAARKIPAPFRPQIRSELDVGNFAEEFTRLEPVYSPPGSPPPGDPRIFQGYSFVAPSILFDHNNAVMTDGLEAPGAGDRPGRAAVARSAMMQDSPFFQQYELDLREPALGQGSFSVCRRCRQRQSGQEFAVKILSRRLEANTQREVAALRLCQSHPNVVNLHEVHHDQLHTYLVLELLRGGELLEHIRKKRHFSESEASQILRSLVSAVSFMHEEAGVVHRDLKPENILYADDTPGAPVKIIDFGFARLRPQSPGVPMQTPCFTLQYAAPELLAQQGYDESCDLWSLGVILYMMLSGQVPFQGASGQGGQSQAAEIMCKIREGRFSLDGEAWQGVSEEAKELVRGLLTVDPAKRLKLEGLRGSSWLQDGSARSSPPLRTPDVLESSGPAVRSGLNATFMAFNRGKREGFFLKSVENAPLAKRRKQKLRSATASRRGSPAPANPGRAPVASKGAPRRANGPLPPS

[4] = target: Protein kinase C theta type (Homo sapiens) (UniProt Q04759); experiment: Inhibition of PKCtheta (unknown origin) at 1 uM in presence of ATP at Km concentration by mobility shift assay relative to control
Sequence of Protein kinase C theta type (Homo sapiens) (Q04759 whole entry, looked up): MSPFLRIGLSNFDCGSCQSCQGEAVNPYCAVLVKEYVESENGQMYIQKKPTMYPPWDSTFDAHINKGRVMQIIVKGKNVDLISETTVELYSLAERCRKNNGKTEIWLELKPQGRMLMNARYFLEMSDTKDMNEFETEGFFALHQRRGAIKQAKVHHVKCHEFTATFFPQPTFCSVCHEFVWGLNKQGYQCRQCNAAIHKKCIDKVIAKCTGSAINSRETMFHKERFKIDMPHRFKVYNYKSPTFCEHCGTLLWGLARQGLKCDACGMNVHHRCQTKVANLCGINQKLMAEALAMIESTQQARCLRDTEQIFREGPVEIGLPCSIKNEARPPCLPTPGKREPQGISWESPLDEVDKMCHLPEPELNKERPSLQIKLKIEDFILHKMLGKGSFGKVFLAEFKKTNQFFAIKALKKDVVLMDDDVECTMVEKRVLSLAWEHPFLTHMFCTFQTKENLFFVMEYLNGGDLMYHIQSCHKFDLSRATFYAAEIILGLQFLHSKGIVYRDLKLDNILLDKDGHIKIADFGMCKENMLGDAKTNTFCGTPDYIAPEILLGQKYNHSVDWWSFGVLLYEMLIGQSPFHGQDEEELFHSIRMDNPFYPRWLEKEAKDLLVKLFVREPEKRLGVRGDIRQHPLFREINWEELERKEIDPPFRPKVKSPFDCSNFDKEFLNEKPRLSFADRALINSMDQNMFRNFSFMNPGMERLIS

LNCaP [5] = experiment: Induction of apoptosis in human LNCaP cells assessed as viable cells at 1.25 uM incubated for 72 hrs by annexin V/PI double staining based flow cytometry method (reference value: 93.63 %); assay type: functional; details: read-out: Activity
LNCaP [6] = experiment: Induction of apoptosis in human LNCaP cells assessed as early apoptotic cells at […] incubated for 72 hrs by annexin V/PI double staining based flow cytometry method (reference value: […]); assay type: functional
LNCaP [7] = experiment: Induction of apoptosis in human LNCaP cells assessed as late apoptotic cells at […] incubated for 72 hrs by annexin V/PI double staining based flow cytometry method (reference value: 2.75 %); assay type: functional
LNCaP [8] = experiment: Induction of apoptosis in human LNCaP cells assessed as necrotic cells at […] incubated for 72 hrs by annexin V/PI double staining based flow cytometry method (reference value: 2.41%); assay type: functional
LNCaP [9] = experiment: Induction of cell cycle arrest in human LNCap cells assessed as accumulation at G0/G1 phase at 0.2 uM incubated for 24 hrs by flow cytometry (reference value: 58.60 %); assay type: functional
LNCaP [10] = experiment: Induction of apoptosis in human LNCap cells assessed as necrotic cells incubated for 72 hrs by annexin V/PI double staining based flow cytometry method; assay type: functional, cell-based; details: dose 0.62-2.5 µM, DDE = dose-dependent effect
LNCaP [11] = experiment: Induction of cell cycle arrest in human LNCap cells assessed as decrease in accumulation at G2/M phase at 0.04 to 1 uM incubated for 24 hrs by flow cytometry; assay type: functional, cell-based; details: dose 0.04-1 µM
[12] = Metabolic stability in CD-1 mouse liver microsomes assessed hepatic clearance at 1 uM measured after 60 mins by LC-MS/MS analysis; assay type: ADME, Microsome; details: 1 h
[13] = Metabolic stability in Sprague-Dawley rat liver microsomes assessed as parent compound remaining at 1 uM measured after 60 mins by UPLC-MS/MS analysis; assay type: ADME, Microsome; details: read-out: Stability
[14] = Metabolic stability in Crab eating monkey liver microsomes assessed as parent compound remaining at 1 uM measured after 60 mins by UPLC-MS/MS analysis; assay type: ADME, Macaca fascicularis, Microsome; details: cynomolgus monkey, read-out: Stability
[15] = Tmax in Sprague-Dawley rat at 10 mg/kg, ig by UPLC-MS/MS analysis; assay type: ADME, organism-based; details: in vivo, po, time < 24 hrs
[16] = AUC (0 to t) in Sprague-Dawley rat at 5 mg/kg, iv measured upto 24 hrs by UPLC-MS/MS analysis; assay type: ADME, organism-based; design: time < 24 hrs, dose 5 mg/kg, route iv; details: in vivo
[17] = Tmax in crab-eating monkey at 6 mg/kg, ig by UPLC-MS/MS analysis; assay type: ADME, organism-based, Macaca fascicularis; details: cynomolgus monkey, in vivo, po
[18] = Half life in crab-eating monkey at 6 mg/kg, ig by UPLC-MS/MS analysis; assay type: ADME, organism-based, Macaca fascicularis; details: cynomolgus monkey, in vivo, po
[19] = Cmax in crab-eating monkey at 3 mg/kg, iv measured upto 24 hrs by UPLC-MS/MS analysis; assay type: ADME, organism-based, Macaca fascicularis; design: dose 3 mg/kg, time < 24 hrs, route iv; details: cynomolgus monkey, in vivo
[20] = AUC (0 to t) in crab-eating monkey at 3 mg/kg, iv measured upto 24 hrs by UPLC-MS/MS analysis; assay type: ADME, organism-based, Macaca fascicularis; design: dose 3 mg/kg, time < 24 hrs, route iv; details: cynomolgus monkey, in vivo
[21] = AUC (0 to infinity) in crab-eating monkey at 3 mg/kg, iv measured upto 24 hrs by UPLC-MS/MS analysis; assay type: ADME, organism-based, Macaca fascicularis; design: dose 3 mg/kg, time < 24 hrs, route iv; details: cynomolgus monkey, in vivo
[22] = Apparent volume of distribution at steady state in crab-eating monkey at 3 mg/kg, iv measured upto 24 hrs by UPLC-MS/MS analysis; assay type: ADME, organism-based, Macaca fascicularis; details: cynomolgus monkey, in vivo, read-out: Vdss(app)
LNCaP [23] = experiment: Antitumor activity against human LNCaP cells xenografted in NCG mouse assessed as tumor growth inhibition at 12.5 mg/kg administered once daily for 18 to 21 days relative to control; assay type: functional; details: time 18-21 day, read-out: TGI
[24] = Tmax in NCG mouse xenografted with human LNCaP cells at 50 mg/kg administered once daily for 18 to 21 days and measured upto 10 hrs post last dose by LC-MS/MS analysis; assay type: ADME, organism-based; details: in vivo, time 18-21 day
[25] = Cmax in NCG mouse xenografted with human LNCaP cells at 12.5 mg/kg administered once daily for 18 to 21 days and measured upto 10 hrs post last dose by LC-MS/MS analysis; assay type: ADME, organism-based; details: in vivo
[26] = Cmax in NCG mouse xenografted with human LNCaP cells at 25 mg/kg administered once daily for 18 to 21 days and measured upto 10 hrs post last dose by LC-MS/MS analysis; assay type: ADME, organism-based; design: time upper 21 day, time lower 18 day, dose 25 mg/kg; details: in vivo
[27] = Cmax in NCG mouse xenografted with human LNCaP cells at 50 mg/kg administered once daily for 18 to 21 days and measured upto 10 hrs post last dose by LC-MS/MS analysis; assay type: ADME, organism-based; design: dose 50 mg/kg, time 18-21 day; details: in vivo
LNCaP [28] = experiment: In vivo inhibition of AKT in human LNCaP cells xenografted in NCG mouse assessed as reduction in GSK-3beta phosphorylation at 25 to 50 mg/kg administered for 21 days and measured after 4 hrs post last dose by Western blot analysis; assay type: functional, organism-based; details: dose lower […], dose upper 50.0 mg/kg, time 21.0 day
[29] = Metabolic stability in human […] liver microsomes assessed as half life at 1 uM measured after 60 mins by LC-MS/MS analysis; assay type: ADME, Microsome

## CC(C)NC[C@@H](C(=O)N1CCN(c2ncnc3c2[C@H](C)CC(=O)N3)[C@H]2C[C@H]21)c1ccc(Cl)cc1
Cytochrome P450 1A2
  IC50: > 50 µM
[1]
  bioavailability: 29.7%
LNCaP [2]
  Activity: Dde
[3]
  inhibition: 90%
[4]
  inhibition: 90%
LNCaP [5]
  viability at 1.25 µM: 69.8%
LNCaP [6]; dose 0.62 µM
  Activity: 6.55%
LNCaP [6]; dose 2.5 µM
  Activity: 22.54%
LNCaP [7]; dose 0.62 µM
  Activity: 9.01%
LNCaP [7]; dose 2.5 µM
  Activity: 16.43%
LNCaP [8]; dose 0.62 µM
  Activity: 4.72%
LNCaP [8]; dose 2.5 µM
  Activity: 6%
LNCaP [9]
  Activity: 82.42%
LNCaP [10]
  Activity: Dde
LNCaP [11]
  Activity: Active
[12]
  CLH: < 18.3 mL/day/kg
[13]
  remaining at 1 h, 1 µM: 88.8%
[14]
  remaining at 1 h, 1 µM: 23.1%
[15]
  Tmax: 2 h
[16]
  AUC(0-t) at 24 h: 1760 ng·h/mL
[17]
  Tmax: 4 h
[18]
  half-life: 6.16 h
[19]
  Cmax: 702 ng/mL
[20]
  AUC(0-t) at 24 h: 1780 ng·h/mL
[21]
  AUC(0-inf): 1880 ng·h/mL
[22]
  Vd: 8.36 L/kg
LNCaP [23]
  inhibition in vivo at 12.5 mg/kg: 84.1%
[24]
  Tmax: 1 h
[25]
  Cmax: 963 ng/mL
[26]
  Cmax: 1980 ng/mL
[27]
  Cmax: 3050 ng/mL
LNCaP [28]
  Activity: Active
[29]
  half-life at 1 µM: 1.52 h
